Experimental data: patent US7407973B2, “Use of pirfenidone in therapeutic regimens” (Intermune, Inc., priority 2003, dated 2008)

Columns and labels:
Assay in all cases: Enzymatic activity of human kinase in presence of pirfenidone
Type in all cases: biochemical
Details in all cases: percent of control activity in absence of pirfenidone, concentration not given
p70S6K = p70S6K (Homo sapiens, UniProt P23443)
Method: (§1) Enzymatic activity of various human kinases was assayed in the presence and the absence of pirfenidone. Percent enzyme activity of various human enzymes in the presence of substrate and pirfenidone are shown in FIGS. 1-5, and in Table 2, below, where “percent enzyme activity” is the percent of the control activity (e.g., in the absence of pirfenidone): […]

PAK2 = PAK2 (Homo sapiens, UniProt Q13177)
Sequence of PAK2 (Q13177 whole entry): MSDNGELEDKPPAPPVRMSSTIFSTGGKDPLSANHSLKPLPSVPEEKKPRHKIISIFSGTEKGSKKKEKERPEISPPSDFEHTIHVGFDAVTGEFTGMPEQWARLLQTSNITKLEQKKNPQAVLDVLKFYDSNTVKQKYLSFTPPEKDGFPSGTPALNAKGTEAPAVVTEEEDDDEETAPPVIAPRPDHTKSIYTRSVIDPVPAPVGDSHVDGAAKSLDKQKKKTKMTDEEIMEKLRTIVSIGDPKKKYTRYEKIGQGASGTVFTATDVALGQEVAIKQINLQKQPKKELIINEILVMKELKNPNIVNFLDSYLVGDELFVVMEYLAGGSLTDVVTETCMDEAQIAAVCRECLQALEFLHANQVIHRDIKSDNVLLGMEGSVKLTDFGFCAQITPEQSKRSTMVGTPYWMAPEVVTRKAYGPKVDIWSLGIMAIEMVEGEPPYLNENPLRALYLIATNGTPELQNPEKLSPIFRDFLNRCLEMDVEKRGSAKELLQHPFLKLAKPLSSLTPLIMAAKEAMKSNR
Method: as §1

Lck = Lck (Homo sapiens, UniProt P06239)
Method: as §1

PKA = PKA (Homo sapiens, UniProt P17612)
Method: as §1

IKKα = IKKα (Homo sapiens, UniProt O15111)
Sequence of IKKα (O15111 whole entry): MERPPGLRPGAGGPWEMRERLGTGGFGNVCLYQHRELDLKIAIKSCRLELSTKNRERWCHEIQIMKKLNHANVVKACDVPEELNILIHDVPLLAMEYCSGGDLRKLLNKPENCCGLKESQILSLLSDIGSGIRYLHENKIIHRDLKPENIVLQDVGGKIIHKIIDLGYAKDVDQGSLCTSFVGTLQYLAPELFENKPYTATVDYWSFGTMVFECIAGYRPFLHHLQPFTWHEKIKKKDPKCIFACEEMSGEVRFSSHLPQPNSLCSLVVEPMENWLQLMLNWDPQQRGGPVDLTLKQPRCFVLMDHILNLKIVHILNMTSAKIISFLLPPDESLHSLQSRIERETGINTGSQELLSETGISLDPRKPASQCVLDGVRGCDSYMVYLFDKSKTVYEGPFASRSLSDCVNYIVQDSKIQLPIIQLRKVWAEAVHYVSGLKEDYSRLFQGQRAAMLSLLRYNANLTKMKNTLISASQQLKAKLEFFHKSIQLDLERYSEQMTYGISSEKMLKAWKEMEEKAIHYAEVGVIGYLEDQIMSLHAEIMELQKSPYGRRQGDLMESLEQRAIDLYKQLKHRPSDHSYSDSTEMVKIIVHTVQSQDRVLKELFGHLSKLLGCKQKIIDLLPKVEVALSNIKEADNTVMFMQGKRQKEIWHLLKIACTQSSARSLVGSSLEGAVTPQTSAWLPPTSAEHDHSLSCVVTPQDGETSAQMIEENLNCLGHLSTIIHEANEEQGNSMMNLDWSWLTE
Method: as §1

Flt3 = Flt3 (Homo sapiens, UniProt P36888)
Sequence of Flt3 (P36888 27-993): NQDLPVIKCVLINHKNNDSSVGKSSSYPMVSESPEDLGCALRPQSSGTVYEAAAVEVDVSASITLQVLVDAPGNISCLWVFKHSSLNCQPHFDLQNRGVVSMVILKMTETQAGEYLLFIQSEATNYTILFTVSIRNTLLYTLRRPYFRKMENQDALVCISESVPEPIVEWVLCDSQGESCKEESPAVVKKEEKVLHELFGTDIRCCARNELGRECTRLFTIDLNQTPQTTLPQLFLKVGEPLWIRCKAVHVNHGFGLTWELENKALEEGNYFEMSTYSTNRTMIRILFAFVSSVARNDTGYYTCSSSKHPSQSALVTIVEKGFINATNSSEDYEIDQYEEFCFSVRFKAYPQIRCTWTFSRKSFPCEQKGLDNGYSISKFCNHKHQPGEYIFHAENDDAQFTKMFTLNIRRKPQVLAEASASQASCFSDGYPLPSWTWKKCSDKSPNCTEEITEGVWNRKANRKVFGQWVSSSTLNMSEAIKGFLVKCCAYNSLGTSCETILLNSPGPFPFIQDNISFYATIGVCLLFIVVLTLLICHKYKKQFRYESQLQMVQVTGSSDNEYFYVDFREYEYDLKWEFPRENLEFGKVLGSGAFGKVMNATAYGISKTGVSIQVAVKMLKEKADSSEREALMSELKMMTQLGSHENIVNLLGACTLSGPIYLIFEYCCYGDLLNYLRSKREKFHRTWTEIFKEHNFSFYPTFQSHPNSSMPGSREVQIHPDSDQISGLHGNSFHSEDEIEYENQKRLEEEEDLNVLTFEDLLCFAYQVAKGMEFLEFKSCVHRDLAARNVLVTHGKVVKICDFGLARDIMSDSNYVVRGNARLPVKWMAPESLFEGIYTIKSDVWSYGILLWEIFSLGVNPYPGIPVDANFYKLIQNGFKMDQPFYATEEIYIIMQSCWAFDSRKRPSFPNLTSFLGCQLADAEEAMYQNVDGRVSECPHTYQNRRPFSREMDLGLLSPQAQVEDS
Method: as §1

Rsk3 = Rsk3 (Homo sapiens, UniProt Q15349)
Sequence of Rsk3 (Q15349 whole entry): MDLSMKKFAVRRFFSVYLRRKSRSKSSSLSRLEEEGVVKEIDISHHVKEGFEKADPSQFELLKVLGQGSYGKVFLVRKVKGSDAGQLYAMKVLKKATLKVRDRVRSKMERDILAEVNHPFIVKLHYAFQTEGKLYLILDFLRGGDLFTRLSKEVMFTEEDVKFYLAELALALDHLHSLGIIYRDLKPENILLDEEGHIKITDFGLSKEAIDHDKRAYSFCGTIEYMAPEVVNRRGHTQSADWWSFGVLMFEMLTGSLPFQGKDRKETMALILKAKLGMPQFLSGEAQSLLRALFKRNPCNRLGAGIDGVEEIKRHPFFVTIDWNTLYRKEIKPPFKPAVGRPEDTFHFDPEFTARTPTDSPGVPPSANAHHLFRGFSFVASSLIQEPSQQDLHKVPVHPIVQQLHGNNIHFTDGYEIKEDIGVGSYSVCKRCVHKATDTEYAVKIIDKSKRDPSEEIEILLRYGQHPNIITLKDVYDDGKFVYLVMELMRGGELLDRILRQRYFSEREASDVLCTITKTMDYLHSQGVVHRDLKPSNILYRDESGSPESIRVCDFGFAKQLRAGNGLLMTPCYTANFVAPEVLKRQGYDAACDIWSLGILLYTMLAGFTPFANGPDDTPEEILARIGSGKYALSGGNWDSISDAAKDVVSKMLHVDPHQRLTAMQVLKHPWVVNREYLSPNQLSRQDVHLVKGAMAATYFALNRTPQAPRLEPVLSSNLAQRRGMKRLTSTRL
Method: as §1

PDK1 = PDK1 (Homo sapiens, UniProt O15530)
Method: as §1

PKBα = PKBα (Homo sapiens, UniProt P31749)
Method: as §1

CDK7/cyclinD3 = tested on: CDK7/cyclinD3
Method: as §1

PRK2 = PRK2 (Homo sapiens, UniProt Q16513)
Method: as §1

PKBβ = PKBβ (Homo sapiens, UniProt P31751)
Method: as §1

GSK3α = GSK3α (Homo sapiens, UniProt P49840)
Method: as §1

PKCμ = PKCμ (Homo sapiens, UniProt Q15139)
Method: as §1

Rsk1 = Rsk1 (Homo sapiens, UniProt Q15418)
Sequence of Rsk1 (Q15418 whole entry): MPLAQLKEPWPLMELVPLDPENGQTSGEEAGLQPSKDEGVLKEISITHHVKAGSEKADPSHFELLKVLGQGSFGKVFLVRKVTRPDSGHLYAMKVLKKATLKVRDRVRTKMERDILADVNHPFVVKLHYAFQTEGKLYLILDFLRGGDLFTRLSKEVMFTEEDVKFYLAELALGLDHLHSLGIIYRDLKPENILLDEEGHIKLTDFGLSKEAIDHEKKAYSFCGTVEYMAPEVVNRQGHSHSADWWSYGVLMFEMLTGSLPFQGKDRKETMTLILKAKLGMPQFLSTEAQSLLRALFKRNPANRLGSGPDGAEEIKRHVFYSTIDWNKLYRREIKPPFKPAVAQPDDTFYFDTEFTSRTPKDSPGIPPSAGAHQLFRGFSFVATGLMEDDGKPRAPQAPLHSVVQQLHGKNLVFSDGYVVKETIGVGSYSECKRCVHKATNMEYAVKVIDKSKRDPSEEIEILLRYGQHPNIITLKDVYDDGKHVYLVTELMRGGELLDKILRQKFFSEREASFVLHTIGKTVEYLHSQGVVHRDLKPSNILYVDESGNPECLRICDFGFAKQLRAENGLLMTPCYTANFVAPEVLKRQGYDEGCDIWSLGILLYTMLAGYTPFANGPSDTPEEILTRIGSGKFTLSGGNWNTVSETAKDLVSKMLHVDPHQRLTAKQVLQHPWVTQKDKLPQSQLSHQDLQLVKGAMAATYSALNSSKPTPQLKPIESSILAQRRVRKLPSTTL
Method: as §1

SGK = SGK (Homo sapiens, UniProt O00141)
Method: as §1

CDK1/cyclinB = CDK1/cyclinB (Homo sapiens, UniProt P06493)
Method: as §1

PKCτ = tested on: PKCτ
Method: as §1

FGFR3 = FGFR3 (Homo sapiens, UniProt P22607)
Method: as §1

MAPKAP-K2 = MAPKAP-K2 (Homo sapiens, UniProt P49137)
Method: as §1

Rsk2 = Rsk2 (Homo sapiens, UniProt P51812)
Method: as §1

TrkB = TrkB (Homo sapiens, UniProt Q16620)
Sequence of TrkB (Q16620 32-822): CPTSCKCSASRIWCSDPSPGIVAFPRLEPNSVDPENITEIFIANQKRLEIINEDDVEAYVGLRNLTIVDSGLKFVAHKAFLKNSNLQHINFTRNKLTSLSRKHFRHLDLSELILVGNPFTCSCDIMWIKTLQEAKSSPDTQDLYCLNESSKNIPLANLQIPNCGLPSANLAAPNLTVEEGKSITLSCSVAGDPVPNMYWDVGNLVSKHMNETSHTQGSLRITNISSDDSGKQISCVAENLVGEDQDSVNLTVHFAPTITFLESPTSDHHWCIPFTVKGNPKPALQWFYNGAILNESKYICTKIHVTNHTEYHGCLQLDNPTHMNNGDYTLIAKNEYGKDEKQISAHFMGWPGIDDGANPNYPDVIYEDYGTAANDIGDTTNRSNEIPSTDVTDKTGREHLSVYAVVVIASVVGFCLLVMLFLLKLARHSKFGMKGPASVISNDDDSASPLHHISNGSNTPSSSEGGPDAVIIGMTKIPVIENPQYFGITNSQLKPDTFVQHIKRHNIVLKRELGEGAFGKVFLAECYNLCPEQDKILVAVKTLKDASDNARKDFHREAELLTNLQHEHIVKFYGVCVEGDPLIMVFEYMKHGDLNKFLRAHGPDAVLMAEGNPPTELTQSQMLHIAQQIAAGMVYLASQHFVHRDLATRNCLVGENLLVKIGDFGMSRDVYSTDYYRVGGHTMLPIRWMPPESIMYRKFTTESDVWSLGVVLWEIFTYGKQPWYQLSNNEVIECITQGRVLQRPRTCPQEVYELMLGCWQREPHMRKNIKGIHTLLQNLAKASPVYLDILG
Method: as §1

CDK2/cyclinA = CDK2/cyclinA (Homo sapiens, UniProt P24941)
Method: as §1

JNK1 = JNK1 (Homo sapiens, UniProt P45983)
Method: as §1

CDK7/cyclinH/MAT1 = CDK7/cyclinH/MAT1 (Homo sapiens, UniProt P50613)
Method: as §1

IR = IR (Homo sapiens, UniProt P06213)
Method: as §1

ROCK-II = ROCK-II (Homo sapiens, UniProt O75116)
Method: as §1

MKK6 = MKK6 (Homo sapiens, UniProt P52564)
Method: as §1

Lyn = Lyn (Homo sapiens, UniProt P07948)
Method: as §1

JNK2 = JNK2 (Homo sapiens, UniProt P45984)
Sequence of JNK2 (P45984 whole entry): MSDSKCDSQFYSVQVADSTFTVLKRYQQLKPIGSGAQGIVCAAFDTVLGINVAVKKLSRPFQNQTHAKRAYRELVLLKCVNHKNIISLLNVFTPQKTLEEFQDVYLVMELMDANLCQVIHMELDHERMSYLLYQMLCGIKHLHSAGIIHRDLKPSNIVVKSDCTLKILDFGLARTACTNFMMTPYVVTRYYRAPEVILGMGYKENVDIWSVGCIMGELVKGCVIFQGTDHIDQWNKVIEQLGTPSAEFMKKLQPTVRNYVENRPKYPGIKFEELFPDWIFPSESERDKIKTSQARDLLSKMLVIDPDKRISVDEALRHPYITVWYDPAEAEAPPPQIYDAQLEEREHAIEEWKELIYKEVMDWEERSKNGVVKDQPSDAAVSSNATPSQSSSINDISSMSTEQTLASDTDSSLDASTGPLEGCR
Method: as §1

## Cc1ccc(=O)n(-c2ccccc2)c1 [pirfenidone, 5-methyl-1-phenyl-2-(1H)-pyridone]
p70S6K
  % Activity: 96%
PAK2
  % Activity: 93%
Lck
  % Activity: 104%
PKA
  % Activity: 109%
IKKα
  % Activity: 114%
Flt3
  % Activity: 103%
Rsk3
  % Activity: 115%
PDK1
  % Activity: 93%
PKBα
  % Activity: 88%
CDK7/cyclinD3
  % Activity: 92%
PRK2
  % Activity: 90%
PKBβ
  % Activity: 88%
GSK3α
  % Activity: 91%
PKCμ
  % Activity: 96%
Rsk1
  % Activity: 88%
SGK
  % Activity: 106%
CDK1/cyclinB
  % Activity: 102%
PKCτ
  % Activity: 96%
FGFR3
  % Activity: 104%
MAPKAP-K2
  % Activity: 97%
Rsk2
  % Activity: 99%
TrkB
  % Activity: 101%
CDK2/cyclinA
  % Activity: 92%
JNK1
  % Activity: 105%
CDK7/cyclinH/MAT1
  % Activity: 95%
IR
  % Activity: 97%
ROCK-II
  % Activity: 90%
MKK6
  % Activity: 84%
Lyn
  % Activity: 92%
JNK2
  % Activity: 97%
